Entries after “also recorded” stand apart in the source; their conditions may differ.
Columns and labels:
A. baumannii (BAA-1709) = assay: Checkerboard / broth microdilution MIC; type: cell-based, Acinetobacter baumannii; details: for MIC of rifampicin at 1/2 × MIC of adjuvant: rifampicin with the labelled adjuvant at 1/2 × its MIC; for MIC of rifampicin at 1/4 × MIC of adjuvant: rifampicin with the labelled adjuvant at 1/4 × its MIC; for MIC of rifampicin at 1/8 × MIC of adjuvant: rifampicin with the labelled adjuvant at 1/8 × its MIC; for Change of antibiotic MIC as polymer concentration increased from 1/16×MICp to ½×MICp: with example polycarbonate 200 (table 500)
Text: To evaluate antibacterial activity of antimicrobial polymer-antibiotic 306 combination therapies, the checkerboard method was used to create chart 400. By using this method, the minimum inhibitory concentration (“MIC”) of antibiotics 306, antimicrobial polymers (e.g., characterized by the first chemical structure 100 and/or the second chemical structure 102), and/or antibiotics 306/antimicrobial polymers (e.g., characterized by the first chemical structure 100 and/or the second chemical structure 102) combination at varying polymer concentrations can be determined. MIC was measured based on the broth microdilution method. 50 microliters (“μL”) of the example polycarbonate 200 at a serious of concentrations (micrograms per milliliter (μg/mL)) was added into a 96-well plate. […] Microbes (e.g., S. aureus, A. baumannii, E. coli, and/or P. aeruginosa) at exponential growth phases were diluted with […] (“MHB”) to about 10^5 colony forming units (“CFU”) per milliliter (CFU/mL), and 100 μL of diluted microbes were added into each well of the 96-well plate with 100 μL of antimicrobial polymer-antibiotic 306 mixture. The 96-well plate was incubated at 37 degrees Celsius (“° C.”) under shaking of 100 revolutions per minute (“rpm”) for about 18 to 20 hours. The concentration at which there was no bacterial growth observed by naked eyes or a microplate reader at 600 nanometers (nm) was recorded as the MIC. The checkerboard experiments were performed three times for each antimicrobial polymer-antibiotic 306 combination.

A. baumannii BAA-1709 [1] = assay: Killing kinetics (CFU counting) under combination treatments; type: cell-based, Acinetobacter baumannii; details: rifampicin 0.008 μg/mL plus the labelled adjuvant at ½×MIC; up to 24 h
Text: To compare the efficiency of an antimicrobial polymer/rifampicin combination and an antimicrobial polymer/polymyxin combination, the CFU of A. baumannii BAA-1709 under different combination treatments were studied. […] The results of CFU counting are presented as mean±standard deviation of triplicate samples.

E. coli = assay: Checkerboard / broth microdilution MIC; type: cell-based, Escherichia coli
Text: To evaluate antibacterial activity of antimicrobial polymer-antibiotic 306 combination therapies, the checkerboard method was used to create chart 400. By using this method, the minimum inhibitory concentration (“MIC”) of antibiotics 306, antimicrobial polymers (e.g., characterized by the first chemical structure 100 and/or the second chemical structure 102), and/or antibiotics 306/antimicrobial polymers (e.g., characterized by the first chemical structure 100 and/or the second chemical structure 102) combination at varying polymer concentrations can be determined. MIC was measured based on the broth microdilution method. 50 microliters (“μL”) of the example polycarbonate 200 at a serious of concentrations (micrograms per milliliter (μg/mL)) was added into a 96-well plate. […] Microbes (e.g., S. aureus, A. baumannii, E. coli, and/or P. aeruginosa) at exponential growth phases were diluted with […] (“MHB”) to about 10^5 colony forming units (“CFU”) per milliliter (CFU/mL), and 100 μL of diluted microbes were added into each well of the 96-well plate with 100 μL of antimicrobial polymer-antibiotic 306 mixture. […] The concentration at which there was no bacterial growth observed by naked eyes or a microplate reader at 600 nanometers (nm) was recorded as the MIC. […]

A. baumannii BAA-1709 [2] = type: cell-based, Acinetobacter baumannii; details: for MIC of pure antibiotic over 30 generations: antibiotic only; for Delay of resistance of the bacteria against the antibiotic: in the presence of example polycarbonate 200 at ¼×MICp
Experimental: To monitor development of antibiotic 306 resistance in A. baumannii, antibiotics 306 at sub-lethal doses were used in combination with the example polycarbonate 200 to repeatedly treat A. baumannii BAA-1709. With concentrations of the example polycarbonate 200 fixed at ¼ or ½×MIC, the MIC of antibiotics 306 was measured by the broth microdilution method. At half of the antibiotic 306 MIC, the survived bacteria, which reached logarithmic growth phase, were collected for MIC measurement of the subsequent passage. The development of antibiotic 306 resistance was monitored for 30 passages and the MIC of the antibiotics 306 at ¼ or ½×MIC of the antimicrobial polymer (e.g., characterized by the first chemical structure 100 and/or the second chemical structure 102) was recorded for each passage. The resistance development of antibiotics 306 only and polymer only was also evaluated over 30 passages.

[3] = system: antibiotic-resistant strains of bacteria (e.g., A. baumannii); assay: MIC against susceptible and antibiotic-resistant strains (table 700); type: cell-based, Acinetobacter baumannii
Text: In addition to antibiotic-susceptible bacteria, antibiotic-resistant strains of bacteria (e.g., indicated with a star in FIG. 7) were also employed to study the effect of antibiotic 306/example polycarbonate 200 combination on antibacterial activity.

A. baumannii strains = assay: Concentrations (1/2 MIC, MBC) for 18 h bactericidal plate test; type: cell-based; details: Acinetobacter baumannii; all the A. baumannii strains; used together with example polycarbonate 200 at ½ MIC; read-out: minimum bactericidal concentration (“MBC”)
Text: (§1) FIG. 13 illustrates a diagram of example, non-limiting table 1300 and/or table 1302, which can depict the synergistic effect of one or more combination therapies, which can comprise one or more antimicrobial polymers (e.g., characterized by the first chemical structure 100 and/or the second chemical structure 102) in combination with one or more antibiotics 306, against various bacteria (e.g., Gram-negative bacteria and/or Gram-positive bacteria) including antibiotic-resistant strains. Repetitive description of like elements employed in other embodiments described herein is omitted for sake of brevity.
(§2) Further, FIG. 13 illustrates a diagram of example, non-limiting photos 1304 of three-component plates with bacteria treated by example polycarbonate 200, rifampicin, and/or a combination thereof for 18 hours. […] The data and/or photos 1304 depicted in FIG. 13 can be representative of three biological replicates, with the “*” denoting antibiotic-resistant strains of bacteria.

E. aerogenes = assay: as above; type: cell-based; details: Klebsiella aerogenes, used together with example polycarbonate 200 at ½ MIC, read-out: minimum bactericidal concentration (“MBC”)
Text: as §1, §2

K. pneumoniae = assay: as above; type: cell-based; details: Klebsiella pneumoniae, used together with example polycarbonate 200 at ½ MIC, read-out: minimum bactericidal concentration (“MBC”)
Text: as §1, §2

[4] = system: A. baumannii (e.g., ATCC BAA-1709); assay: Bacterial count after 18 hours of treatment; type: cell-based, Acinetobacter baumannii; details: treatment for 18 hours; polymer 3.9 or 7.8 μg/mL (graph 1002)
Experimental: The results shown in graph 1002 were achieved after treatment for 18 hours.
Further, FIG. 11 illustrates a diagram of example, non-limiting graph 1102, graph 1110, and/or graph 1118, which can depict that one or more combination therapies comprising one or more antimicrobial polymers (e.g., characterized by the first chemical structure 100, such as example polycarbonate 200, and/or the second chemical structure 102) and one or more antibiotics 306 can show stronger synergistic bactericidal effect than traditional combination therapies as evidenced by the bacterial count after 18 hours of treating A. baumannii (e.g., ATCC BAA-1709).

[5] = repeated sub-MIC exposure, no polymer

For Polymyxin B, the “MIC of rifampicin at 1/2 × MIC of adjuvant” value (A. baumannii (BAA-1709)) was 0.5 µg/mL, the “MIC of rifampicin at 1/4 × MIC of adjuvant” value (A. baumannii (BAA-1709)) was 2.0 µg/mL and the “MIC of rifampicin at 1/8 × MIC of adjuvant” value (A. baumannii (BAA-1709)) was 3.9 µg/mL. The “Bactericidal activity of rifampicin combined with adjuvant (CFU over time)” value (A. baumannii BAA-1709 [1]) was “no bactericidal activity over 24 h; also recorded: no bactericidal effect up to 24 hours”.
In the case of `CC[C@H]1OC(=O)[C@H](C)[C@@H](O[C@H]2C[C@@](C)(OC)[C@@H](O)[C@H](C)O2)[C@H](C)[C@@H](O[C@@H]2O[C@H](C)C[C@H](N(C)C)[C@H]2O)[C@](C)(O)C[C@@H](C)CN(C)[C@H](C)[C@@H](O)[C@]1(C)O` [azithromycin], the “Change of antibiotic MIC as polymer concentration increased from 1/16×MICp to ½×MICp” value (A. baumannii (BAA-1709)) is reported as “significantly reduced”, the “Effect of example polycarbonate 200 on antibiotic potency” value (E. coli) is reported as “enhance the potency” and the “MIC of pure antibiotic over 30 generations” value (A. baumannii BAA-1709 [2]) is reported as “increased”. For the same molecule, the “MIC of antibiotic over 30 generations in the presence of example polycarbonate 200 at ¼×MICp” value (A. baumannii BAA-1709 [2]; polymer fixed at ¼×MICp) was “did not change”.
With `CC1(C)S[C@@H]2[C@H](NC(=O)Cc3ccccc3)C(=O)N2[C@H]1C(=O)O` [Penicillin G, Benzylpenicillin] the “MIC of antibiotics 306 w/o polymer” value (A. baumannii (BAA-1709); antibiotic alone, no polymer) was 62.5 µg/mL, the “Change of antibiotic MIC as polymer concentration increased from 1/16×MICp to ½×MICp” value (A. baumannii (BAA-1709)) was “significantly reduced” and the “MIC of antibiotics 306 at 1/2 × MICp” value (A. baumannii (BAA-1709); with example polyionene 206 at 1/2 × MICp (MICp 7.8 μg/mL)) was 7.8 µg/mL. For the same molecule, the “MIC of antibiotics 306 at 1/4 × MICp” value (A. baumannii (BAA-1709); with example polyionene 206 at 1/4 × MICp (MICp 7.8 μg/mL)) was 31.3 µg/mL, the “MIC of antibiotics 306 at 1/8 × MICp” value (A. baumannii (BAA-1709); with example polyionene 206 at 1/8 × MICp (MICp 7.8 μg/mL)) was 62.5 µg/mL and the “MIC of antibiotics 306 at 1/16 × MICp” value (A. baumannii (BAA-1709); with example polyionene 206 at 1/16 × MICp (MICp 7.8 μg/mL)) was 62.5 µg/mL. For the same molecule, the “MIC of pure antibiotic over 30 generations” value (A. baumannii BAA-1709 [2]) was “increased”, the “Delay of resistance of the bacteria against the antibiotic” value (A. baumannii BAA-1709 [2]) was 22 generations and the “MIC of pure antibiotic at generation 5” value (A. baumannii BAA-1709 [2]; [5]) was 125 µg/mL. For the same molecule, the “MIC of pure antibiotic at generation 30” value (A. baumannii BAA-1709 [2]; [5]) was 1000 µg/mL and the “MIC of pure antibiotic before resistance evolution” value (A. baumannii BAA-1709 [2]; starting value) was 62.5 µg/mL.
`CO[C@H]1/C=C/O[C@@]2(C)Oc3c(C)c(O)c4c(O)c(c(/C=N/N5CCN(C)CC5)c(O)c4c3C2=O)NC(=O)/C(C)=C\C=C\[C@H](C)[C@H](O)[C@@H](C)[C@@H](O)[C@@H](C)[C@H](OC(C)=O)[C@@H]1C` [rifampicin] was tested, and the “MIC reduction compared with pure rifampicin” value (A. baumannii (BAA-1709); with example polycarbonate 200) was “over 2000 folds”, the “MIC of antibiotic in the presence of the antimicrobial polymer at ¼×MICp” value (A. baumannii (BAA-1709); with example polycarbonate 200 at ¼×MICp (e.g., 4 μg/mL)) was 0.13 µg/mL and the “MIC of antibiotic in the presence of the antimicrobial polymer at ½×MICp” value (A. baumannii (BAA-1709); with example polycarbonate 200 at ½×MICp (e.g., 8 μg/mL)) was 0.002 µg/mL. The “MIC reduction at ½×MICp of the antimicrobial polymer” value (E. coli; with example polycarbonate 200 at ½×MICp) was “over 500 fold”, the “MIC of rifampicin at antimicrobial polymer concentration of ¼×MICp” value ([3]; antibiotic-resistant strains, with example polycarbonate 200) was 0.5 µg/mL and the “MIC reduction of rifampicin with polycarbonates of first chemical structure 100” value ([3]; both susceptible and antibiotic-resistant A. baumannii strains) was “up to 2048 fold”. The “Delay of resistance of the bacteria against the antibiotic” value (A. baumannii BAA-1709 [2]) was 17 generations, the MBC (A. baumannii strains) was 0.015 µg/mL and the MBC (E. aerogenes) was 2 µg/mL. The MBC (K. pneumoniae) was 0.5 µg/mL.
For colistin, the “MIC of rifampicin at 1/2 × MIC of adjuvant” value (A. baumannii (BAA-1709)) was 0.06 µg/mL, the “MIC of rifampicin at 1/4 × MIC of adjuvant” value (A. baumannii (BAA-1709)) was 2.0 µg/mL and the “MIC of rifampicin at 1/8 × MIC of adjuvant” value (A. baumannii (BAA-1709)) was 3.9 µg/mL. The “Bactericidal activity of rifampicin combined with adjuvant (CFU over time)” value (A. baumannii BAA-1709 [1]) was “no bactericidal activity over 24 h; also recorded: no bactericidal effect up to 24 hours” and the “Effective dose of colistin as concentration of example polycarbonate 200 increases” value [4] was “reduced”.

From patent US11766451B2, “Utilizing polymers and antibiotics to enhance antimicrobial activity and inhibit antibiotic resistance” (International Business Machines Corporation, priority 2018, dated 2023)
